Assay [1] deals with T1, DOR (Mus musculus, UniProt P32300). In words: Competition binding against [125I]-3.
Assay [2] addresses MOR (Mus musculus, UniProt P42866). In words: Competition binding against [125I]BNtxA in MOR-CHO membranes.
The target in assay [3] is KOR (Mus musculus, UniProt P33534). In words: Competition binding against [125I]BNtxA in KOR-CHO membranes.
The target in assay [4] is 6TM/E11 sites (Mus musculus, UniProt P42866). Format: binding.
Assay [5] concerns the target T1, DOR. Description: [125I]-3 saturation binding in DOR-CHO membranes. The conditions noted are these: mean ± SEM.

This passage reports Ki and Bmax results from article PMC4472604 (ACS chemical neuroscience, 2015).

Usually Ki stands for the dissociation constant of the complex between target and ligand, obtained from inhibition or displacement. Read a low Ki as a stronger hold on the target. In turn, `Oc1ccc2c3c1O[C@H]1c4oc5ccccc5c4C[C@@]4(O)[C@@H](C2)N(CC2CC2)CC[C@]314` [Naltriben] showed a Ki in assay [1] of 0.14 ± 0.04 nM.
As for `Oc1ccc2c3c1O[C@H]1c4[nH]c5ccccc5c4C[C@@]4(O)[C@@H](C2)N(CC2CC2)CC[C@]314` [Naltrindole], affinity in assay [1] was put at a Ki of 0.79 ± 0.16 nM.
For the compound `CC(C)[C@H](NC(=O)[C@H](CCC(=O)O)NC(=O)[C@H](Cc1ccccc1)NC(=O)[C@@H](C)NC(=O)[C@@H](N)Cc1ccc(O)cc1)C(=O)N[C@H](C(=O)NCC(N)=O)C(C)C` [[D-Ala^2]deltorphin II, Tyr-D-Ala-Phe-Glu-Val-Val-Gly-NH2], the Ki in assay [2], in assay [3] and in assay [4] was more than 1000 nM in each case.
“Tyr-D-Ala-(p-^125I)Phe-Glu-Ile-Ile-Gly-NH2 [[^125I]-3]” yielded a Bmax in assay [5] of 196.97 ± 12.44 fmol/mg.
